Experimental data as given in PubChem BioAssay AID1259407 (Chemical Carcinogenesis Research Information System (CCRIS), 2018).
Active and inactive are the calls of the source. No rule for the calls is given here.

System: CCRIS mutagenicity, Ames/micronucleus/aberration tests
Assay: CCRIS mutagenicity studies
[1] = Test System: AMES SALMONELLA TYPHIMURIUM, Strain/Indicator: TA98, Metabolic Activation: HAMSTER, LIVER, S-9, AROCLOR 1254 (10%), Method: PREINCUBATION
[2] = Test System: AMES SALMONELLA TYPHIMURIUM, Strain/Indicator: TA98, Metabolic Activation: NONE, Method: PREINCUBATION
[3] = Test System: AMES SALMONELLA TYPHIMURIUM, Strain/Indicator: TA98, Metabolic Activation: RAT, LIVER, S-9, AROCLOR 1254 (10%), Method: PREINCUBATION
[4] = Test System: AMES SALMONELLA TYPHIMURIUM, Strain/Indicator: TA100, Metabolic Activation: HAMSTER, LIVER, S-9, AROCLOR 1254 (10%), Method: PREINCUBATION
[5] = Test System: AMES SALMONELLA TYPHIMURIUM, Strain/Indicator: TA100, Metabolic Activation: NONE, Method: PREINCUBATION
[6] = Test System: AMES SALMONELLA TYPHIMURIUM, Strain/Indicator: TA100, Metabolic Activation: RAT, LIVER, S-9, AROCLOR 1254 (10%), Method: PREINCUBATION
[7] = Test System: AMES SALMONELLA TYPHIMURIUM, Strain/Indicator: TA1535, Metabolic Activation: HAMSTER, LIVER, S-9, AROCLOR 1254 (10%), Method: PREINCUBATION
[8] = Test System: AMES SALMONELLA TYPHIMURIUM, Strain/Indicator: TA1535, Metabolic Activation: NONE, Method: PREINCUBATION
[9] = Test System: AMES SALMONELLA TYPHIMURIUM, Strain/Indicator: TA1535, Metabolic Activation: RAT, LIVER, S-9, AROCLOR 1254 (10%), Method: PREINCUBATION
[10] = Test System: AMES SALMONELLA TYPHIMURIUM, Strain/Indicator: TA98, Metabolic Activation: NONE, Method: STANDARD PLATE
[11] = Test System: AMES SALMONELLA TYPHIMURIUM, Strain/Indicator: TA100, Metabolic Activation: NONE, Method: STANDARD PLATE
[12] = Test System: AMES SALMONELLA TYPHIMURIUM, Strain/Indicator: TA104, Metabolic Activation: NONE, Method: STANDARD PLATE
[13] = Test System: AMES SALMONELLA TYPHIMURIUM, Strain/Indicator: TA98, Metabolic Activation: RAT, LIVER, S-9, AROCLOR 1254, Method: STANDARD PLATE
[14] = Test System: AMES SALMONELLA TYPHIMURIUM, Strain/Indicator: TA100, Metabolic Activation: RAT, LIVER, S-9, AROCLOR 1254, Method: STANDARD PLATE

Compound: CCC[CH2][Sn]([CH2]CCC)([O]C(C)=O)[O]C(C)=O
- mutagenic call [1]: inactive; negative
- mutagenic call [2]: inactive; negative
- mutagenic call [3]: inactive; negative
- mutagenic call [4]: inactive; negative
- mutagenic call [5]: inactive; negative
- mutagenic call [6]: inactive; negative
- mutagenic call [7]: inactive; negative
- mutagenic call [8]: inactive; negative
- mutagenic call [9]: inactive; negative
- mutagenic call (Test System: AMES SALMONELLA TYPHIMURIUM, Strain/Indicator: TA1537, Metabolic Activation: HAMSTER, LIVER, S-9, AROCLOR 1254 (10%), Method: PREINCUBATION): inactive; negative
- mutagenic call (Test System: AMES SALMONELLA TYPHIMURIUM, Strain/Indicator: TA1537, Metabolic Activation: NONE, Method: PREINCUBATION): inactive; negative
- mutagenic call (Test System: AMES SALMONELLA TYPHIMURIUM, Strain/Indicator: TA1537, Metabolic Activation: RAT, LIVER, S-9, AROCLOR 1254 (10%), Method: PREINCUBATION): inactive; negative

Compound: CC1(C)C=C(C(=O)O)C(C)(C)N1[O]
- mutagenic call [10]: inactive; negative
- mutagenic call [11]: inactive; negative
- mutagenic call (Test System: AMES SALMONELLA TYPHIMURIUM, Strain/Indicator: TA102, Metabolic Activation: NONE, Method: STANDARD): inactive; negative
- mutagenic call (Test System: AMES SALMONELLA TYPHIMURIUM, Strain/Indicator: TA102, Metabolic Activation: NONE, Method: STANDARD PLATE): inactive; negative
- mutagenic call (Test System: AMES SALMONELLA TYPHIMURIUM, Strain/Indicator: TA102, Metabolic Activation: XANTHINE OXIDASE, Method: STANDARD PLATE): inactive; negative
- mutagenic call [12]: inactive; negative
- mutagenic call (Test System: AMES SALMONELLA TYPHIMURIUM, Strain/Indicator: TA104, Metabolic Activation: XANTHINE OXIDASE, Method: STANDARD PLATE): inactive; negative

Compound: O=CN(O)c1ccc(Cl)c(Cl)c1
- mutagenic call (Test System: AMES SALMONELLA TYPHIMURIUM, Strain/Indicator: TA97, Metabolic Activation: NONE, Method: STANDARD PLATE): inactive; negative
- mutagenic call (Test System: AMES SALMONELLA TYPHIMURIUM, Strain/Indicator: TA97, Metabolic Activation: RAT, LIVER, S-9, AROCLOR 1254, Method: STANDARD PLATE): inactive; negative
- mutagenic call [10]: inactive; negative
- mutagenic call [13]: inactive; negative
- mutagenic call [11]: inactive; negative
- mutagenic call [14]: inactive; negative
- mutagenic call [12]: inactive; negative
- mutagenic call (Test System: AMES SALMONELLA TYPHIMURIUM, Strain/Indicator: TA104, Metabolic Activation: RAT, LIVER, S-9, AROCLOR 1254, Method: STANDARD PLATE): inactive; negative

Compound: Nc1cccc([N+](=O)[O-])c1O
- mutagenic call [10]: inactive; negative
- mutagenic call [13]: inactive; negative
- mutagenic call [11]: inactive; negative
- mutagenic call [14]: inactive; negative
- mutagenic call (Test System: AMES SALMONELLA TYPHIMURIUM, Strain/Indicator: TA1535, Metabolic Activation: NONE, Method: STANDARD PLATE): inactive; negative
- mutagenic call (Test System: AMES SALMONELLA TYPHIMURIUM, Strain/Indicator: TA1535, Metabolic Activation: RAT, LIVER, S-9, AROCLOR 1254, Method: STANDARD PLATE): inactive; negative
- mutagenic call (Test System: AMES SALMONELLA TYPHIMURIUM, Strain/Indicator: TA1537, Metabolic Activation: NONE, Method: STANDARD PLATE): inactive; negative
- mutagenic call (Test System: AMES SALMONELLA TYPHIMURIUM, Strain/Indicator: TA1537, Metabolic Activation: RAT, LIVER, S-9, AROCLOR 1254, Method: STANDARD PLATE): inactive; negative
- mutagenic call (Test System: AMES SALMONELLA TYPHIMURIUM, Strain/Indicator: TA1538, Metabolic Activation: NONE, Method: STANDARD PLATE): inactive; negative
- mutagenic call (Test System: AMES SALMONELLA TYPHIMURIUM, Strain/Indicator: TA1538, Metabolic Activation: RAT, LIVER, S-9, AROCLOR 1254, Method: STANDARD PLATE): inactive; negative

Compound: OCC1CCCO1 (stereo unspecified)
- mutagenic call [2]: inactive; negative
- mutagenic call (Test System: AMES SALMONELLA TYPHIMURIUM, Strain/Indicator: TA98, Metabolic Activation: RAT, LIVER, S-9, AROCLOR 1254, Method: PREINCUBATION): inactive; negative
- mutagenic call [5]: inactive; negative
- mutagenic call (Test System: AMES SALMONELLA TYPHIMURIUM, Strain/Indicator: TA100, Metabolic Activation: RAT, LIVER, S-9, AROCLOR 1254, Method: PREINCUBATION): inactive; negative
- mutagenic call (Test System: AMES SALMONELLA TYPHIMURIUM, Strain/Indicator: TA102, Metabolic Activation: NONE, Method: PREINCUBATION): inactive; negative
- mutagenic call (Test System: AMES SALMONELLA TYPHIMURIUM, Strain/Indicator: TA102, Metabolic Activation: RAT, LIVER, S-9, AROCLOR 1254, Method: PREINCUBATION): inactive; negative

Compound: O=[N+]([O-])c1cccc2cc3ccccc3cc12
- mutagenic call [2]: active; positive
- mutagenic call [3]: active; positive
- mutagenic call [5]: active; positive
- mutagenic call [6]: active; positive

Compound: CCOC(/C=C(\C)CCC=C(C)C)OCC
- mutagenic call (Test System: AMES SALMONELLA TYPHIMURIUM, Strain/Indicator: TA97, Metabolic Activation: HAMSTER, LIVER, S-9, AROCLOR 1254 (10%), Method: PREINCUBATION): inactive; negative
- mutagenic call (Test System: AMES SALMONELLA TYPHIMURIUM, Strain/Indicator: TA97, Metabolic Activation: NONE, Method: PREINCUBATION): inactive; negative
- mutagenic call (Test System: AMES SALMONELLA TYPHIMURIUM, Strain/Indicator: TA97, Metabolic Activation: RAT, LIVER, S-9, AROCLOR 1254 (10%), Method: PREINCUBATION): inactive; negative
- mutagenic call [1]: inactive; negative
- mutagenic call [2]: inactive; negative
- mutagenic call [3]: inactive; negative
- mutagenic call [4]: inactive; negative
- mutagenic call [5]: inactive; negative
- mutagenic call [6]: inactive; negative
- mutagenic call [7]: active; positive
- mutagenic call [8]: inactive; negative
- mutagenic call [9]: active; positive

Compound: CC(C)(C)N(CC(O)COc1cccc2c1CC(O)C(O)C2)N=O (stereo unspecified)
- mutagenic call (Test System: UDS HUMAN HEPATOCYTES, Strain/Indicator: THY INCORP, Metabolic Activation: NONE, Method: AUTORADIOGRAPHY): active; positive
- mutagenic call (Test System: UDS RAT HEPATOCYTES, Strain/Indicator: THY INCORP, Metabolic Activation: NONE, Method: AUTORADIOGRAPHY): active; positive
